Columns and labels:
Human recombinant MMP-9 = target: T1, Human recombinant MMP-9 (Homo sapiens, UniProt P14780); test: Protease counter-screening: MMP-9; assay type: biochemical
T1 construct: host or cells: mammalian cells
Method: (§1) Appendix 7. Protease Counter -Screening
(§2) Protease counter-screeni ng was performed using the methods described below. Initial screening was conducted in duplicate using a single test substance concentration of 10 µ M .
(§3) Additional assays were conducted in replicate for selected pairin gs of test s ubstance and enz yme in order to enable the determination of IC50 values using conventional procedures.
(§4) Determination of K i was made using the Batch K i program (Biokin Ltd, Pullman, WA) to derive values from the Morrison equation: […]
MMP-9: Human recombinant MMP-9 proenz yme ex pressed in mammalian cells was activated with APMA for 60 min at 37 °C. […] The amount of MCA-P LG formed was read spectrofluorimetricall y at 340 nm/400 nm.
ADAM-17/TACE: Human recombinant ADAM-17 expressed in Sf21 insect cells was used as enz yme sour ce. […] T he amount of MCA-P LAQA formed w as read spectro fluorimetricall y at 340 nm/400 nm.
Angiotensin converting enzyme: Test compound or vehicle was pre- incubated in modified HEPES buffer pH 7.5 for 15 min at 25 °C with 31 mU/mL angiotensin converting enz yme from rabbit lung. […] The amount of substrate remaining was read spectrophotometricall y at 340 nm and used to deri ve the extent of reaction and its inhibition. […]

[1] = Plasma protein binding, Rapid Equilibrium Dialysis; assay type: in vitro ADME; conditions: both sexes, Sprague Dawley, plasma (EDTA K2, pooled), rat plasma, 4 h at 37 °C, read-out: PPB (converted)
Method: Appendix 2. Pharmaco kinetics an d P l a s ma Protein Binding […]
Plasma Protein Binding Assay. PPB was determined with a Rapid Equilibrium Dialysis device using 8 kDa molecular weight cut-off inserts (Fisher Scientific UK Ltd, Leicest ershire, UK) as described b y the manufacturer. R at (Sprague Dawl e y strain) plasma EDTA K2 (mixed gender, pooled, SeraLab, West Sussex, UK) was thawed and centrifuged at 13,000 x g for 10 min to remove precipitates before being spiked with compounds (5 µM). The concentrations of compounds in the plasma and buffer chambers were determined b y LC -MS-MS (AB Sciex 3200 QTrap) anal ysis after 4 h incubation at 37 °C. Binding was calculated from the concentration percentage in both chambers as shown below. Assays were p erfo rmed in replicate and the data

[2] = target: T2, cathepsin H purified from human liver (Homo sapiens, UniProt P09668); test: Protease counter-screening: Cathepsin H; assay type: biochemical
T2 construct: Tests were performed using cathepsin H purified from human liver; from tissue; host or cells: human liver
T2 sequence (P09668 98-335): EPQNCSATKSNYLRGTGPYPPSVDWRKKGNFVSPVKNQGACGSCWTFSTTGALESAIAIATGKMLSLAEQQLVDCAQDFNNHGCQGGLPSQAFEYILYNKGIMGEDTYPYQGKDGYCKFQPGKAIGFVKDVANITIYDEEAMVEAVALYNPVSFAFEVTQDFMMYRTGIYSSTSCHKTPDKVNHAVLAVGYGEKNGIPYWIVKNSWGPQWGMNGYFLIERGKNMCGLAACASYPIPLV
Method: Cathep sin H: Tests were performed using cathepsin H purified from human liver. Test compound or vehicle was pre -incubated with 3.3 mU/mL enz yme in sodium acetate buffer pH 5.5 for 15 min at 25 °C. The reaction was initiated by addition of 20 µM L-RR- AMC for another

[3] = target: T3, Factor VIIa from human plasma (Homo sapiens, UniProt P08709); test: Protease counter-screening: Factor VIIa; assay type: biochemical
T3 construct: incubated with 25 nM Factor VIIa from; from tissue; host or cells: human plasma
T3 sequence (P08709 213-466 limits assumed): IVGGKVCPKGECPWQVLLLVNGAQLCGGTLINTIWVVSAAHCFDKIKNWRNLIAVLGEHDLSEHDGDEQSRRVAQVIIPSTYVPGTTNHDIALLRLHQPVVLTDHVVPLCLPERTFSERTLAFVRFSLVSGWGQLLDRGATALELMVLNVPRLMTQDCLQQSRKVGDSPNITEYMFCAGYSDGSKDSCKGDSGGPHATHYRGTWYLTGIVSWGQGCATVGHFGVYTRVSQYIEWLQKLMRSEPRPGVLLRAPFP
T3 sequence (P08709 61-212 limits assumed): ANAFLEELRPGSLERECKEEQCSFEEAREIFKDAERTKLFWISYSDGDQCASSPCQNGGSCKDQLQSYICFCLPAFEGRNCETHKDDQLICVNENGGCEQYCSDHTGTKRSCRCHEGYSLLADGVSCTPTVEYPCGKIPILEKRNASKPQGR
Method: as §1, §2, §3, §4
Where [E ] is the active enz yme concentration, Kiapp is the apparent inhibition const ant, v 0 is the control velocit y in the absence of inhibitors, vb is the background velocity, v is the initial reaction velocit y in the presence of inhibitor, and I is the inhibitor concentration.Thence:
Where [S ] is the substrate concentration and KM is the Michealis constant. […]
Test compound or vehicle was pre- incubated with 600
Factor VIIa: Test compound or vehicle was pre- incubated with 25 nM Factor VIIa from human plasma in modified 50 mM Tris-HCl buffer pH 7.6 for 15 min at 25 °C. The reaction was initiated by addition of 1 µM N-CH3-SO2-D-FGR-pNA for another 120 min incubation period.
The amount of pNA formed was read spectrophotometricall y at 405 nm. […]

T1 sequence (P14780 107-707 limits assumed): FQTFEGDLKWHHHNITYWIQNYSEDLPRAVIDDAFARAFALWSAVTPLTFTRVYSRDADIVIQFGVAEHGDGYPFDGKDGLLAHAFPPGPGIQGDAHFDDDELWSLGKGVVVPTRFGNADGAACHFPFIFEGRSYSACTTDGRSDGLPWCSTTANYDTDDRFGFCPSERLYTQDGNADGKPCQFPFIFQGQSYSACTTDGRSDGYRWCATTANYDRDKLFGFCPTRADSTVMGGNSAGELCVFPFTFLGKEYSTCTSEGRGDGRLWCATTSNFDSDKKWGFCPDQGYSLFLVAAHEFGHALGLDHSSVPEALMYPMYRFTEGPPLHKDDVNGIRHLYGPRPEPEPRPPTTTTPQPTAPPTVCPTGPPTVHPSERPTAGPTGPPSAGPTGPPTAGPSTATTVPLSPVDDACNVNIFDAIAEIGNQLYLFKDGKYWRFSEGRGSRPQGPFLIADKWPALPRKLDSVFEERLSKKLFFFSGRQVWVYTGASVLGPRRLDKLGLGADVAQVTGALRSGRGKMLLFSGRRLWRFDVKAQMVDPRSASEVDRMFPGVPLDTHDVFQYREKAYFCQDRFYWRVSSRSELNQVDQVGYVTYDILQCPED

In the case of `CC(C)[C@H](NC(=O)[C@H](C)NC(=O)[C@@H](NC(=O)c1ccccc1)C(C)(C)C)C(=O)C(=O)NCc1ccccc1` [Compound 38, N-{(S)-1-[(S)-1-((S)-1-Benzylaminooxalyl-2-methyl-propylcarbamoyl)-ethylcarbamoyl]-2,2-dimethyl-propyl}-benzamide], the inhibition at 10 µM (Human recombinant MMP-9) is reported as 5%, the fraction unbound at 4 h, 5 µM [1] is reported as 0.04 and the inhibition at 10 µM [2] is reported as 13%. For the same compound, the inhibition at 10 µM [3] was 1%.

Source: publication PMC4257840 (Journal of Medicinal Chemistry, 2014)
